Measured values: US11141454B2, “Application of earthworm protein peptide in preparation of medicine for preventing and/or treating thrombotic disease” (Zhongshiduqing (Shandong) Biotech Co., Ltd., priority 2019, dated 2021)

System: carrageenan-induced rat tail thrombosis
Test: Carrageenan-induced rat tail thrombosis (black tail rate and length)
Format: in vivo, SD rats
Conditions: for Black tail rates of rats (%): Aspirin group 7.72 mg/kg intragastric
Method: The carrageenan was weighed and prepared into a carrageenan solution (2%) with a concentration of […] using 0.9% NaCl; rats were weighed and injected with carrageenan subcutaneously at a dose of 80 mg/kg; intragastric administration treatment was performed on a prevention group 5 days in advance; after model making for 30 min, intragastric administration treatment was performed on the remaining four groups other than the prevention group according to relevant doses, and then the rats were placed in a constant temperature environment of (18±2)° C., and free diet and water drinking were provided.
A total of 42 SD rats were randomly selected for thrombus model making by using carrageenan. The physiological activities of the rats were observed. The normal saline was used as a blank control group, and an aspirin group was used as a positive control group. A polypeptide (the earthworm protein peptide containing four anticoagulant active polypeptides, namely Leu-Val-Thr-Leu-Gly-Asn-Glu, Leu-Leu-Ala-Pro-Pro, Leu-Leu-Pro-Ala-Pro and Thr-Val-Ala-Pro-Phe prepared in Embodiment 1) and relevant medicines were dissolved with normal saline, and the intragastric administration dose was operated according to Table 2 below. […] After injection of carrageenan in each experimental group and normal saline group, rats with different degrees of blood stasis and black tail appeared 3 to 14 hours after model making, and gradually expanded to the tail root. The measured data was processed by spss18.0 software. In order to compare the differences between different groups, one-way analysis of variance was used. […] If P was smaller than 0.05, it indicated there was significant difference. […] The test results are shown in Table 3 and Table 4 below and in FIGS. 9 to 23.

CC(=O)Oc1ccccc1C(=O)O [Aspirin, aspirin]
Black tail rates of rats (%) (24 h): 0% | Black tail rates of rats (%) (36 h): 16.7% | Black tail rates of rats (%) (48 h): 16.7% | Black tail rates of rats (%) (56 h): 16.7% | Black tail rates of rats (%) (72 h): 50% | Black tail rates of rats (%) (96 h): 67% | black tail inhibition ratio compared with the normal saline group (aspirin group (7.72 mg/kg), after 48 hours, FIG. 9): 75.8% | length of tail thrombogenesis (black tail length) (aspirin group (7.72 mg/kg), after 48 hours, normal saline 100.13 mm): 24.24 mm | number of rats with obvious black tail signs (aspirin group, after 72 hours, FIG. 11): three
